# “Also recorded” adds a separate entry of the source.
# How the values were obtained:
# [1] = biological target: T1, human HCN3 (Homo sapiens, UniProt Q9P1Z3); assay: Whole cell patch clamp of HEK293 cells stably expressing human HCN3; format: cell-based; conditions: for reversibility of HCN3 current block: ZD7288: washout of at least 15 min
# T1 construct: expressed in transfected cells; host or cells: HEK293 cells stably transfected with hHCN3-pcDNA3.1 Zeo
# T1 sequence (Q9P1Z3 1-774): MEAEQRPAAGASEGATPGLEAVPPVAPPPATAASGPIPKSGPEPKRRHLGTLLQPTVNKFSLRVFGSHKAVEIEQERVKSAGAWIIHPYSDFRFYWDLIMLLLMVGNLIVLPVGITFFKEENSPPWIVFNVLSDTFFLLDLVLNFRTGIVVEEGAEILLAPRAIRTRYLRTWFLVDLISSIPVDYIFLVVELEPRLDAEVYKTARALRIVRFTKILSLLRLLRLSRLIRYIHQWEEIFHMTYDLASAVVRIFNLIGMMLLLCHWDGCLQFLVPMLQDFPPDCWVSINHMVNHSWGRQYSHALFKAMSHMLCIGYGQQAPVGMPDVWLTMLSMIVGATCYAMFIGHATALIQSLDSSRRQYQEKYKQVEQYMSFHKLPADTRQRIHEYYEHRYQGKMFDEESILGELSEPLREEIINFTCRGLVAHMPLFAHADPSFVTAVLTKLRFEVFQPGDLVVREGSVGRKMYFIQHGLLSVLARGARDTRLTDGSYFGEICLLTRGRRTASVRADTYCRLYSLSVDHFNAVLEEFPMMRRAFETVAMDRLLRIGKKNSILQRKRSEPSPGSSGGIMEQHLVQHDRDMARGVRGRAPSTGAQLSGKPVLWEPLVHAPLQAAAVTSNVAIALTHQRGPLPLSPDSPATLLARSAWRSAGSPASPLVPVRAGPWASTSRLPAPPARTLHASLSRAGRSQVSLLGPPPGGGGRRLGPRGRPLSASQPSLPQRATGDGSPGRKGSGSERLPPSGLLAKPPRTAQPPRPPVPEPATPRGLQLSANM
# [2] = system: Ih in large DRG neurons; assay: Whole cell patch clamp of Ih in dissociated large L5 DRG neurons of SNL and control rats; format: cell-based, rat; conditions: Cs+ 3 mM extracellular; ZD7288 50 μM
# Protocol: Methods: Rats were prepared according to the above SNL model (L5 ligation). Sham rats were prepared identically, but without resection of the transverse process to avoid nerve trauma, and without nerve ligation. After 7 days, rats were killed by cervical dislocation and the ipsilateral L4 (no ligation) and L5 DRGs were quickly excised with fine forceps under a stereomicroscope and placed in ice cold Tyrode's containing pen/strep antibiotics.
# Dissociation and culture of DRG neurons: DRGs from the L5 level of SNL, sham ligated and naive rats, and the L4 level of SNL rats were removed and maintained in ice-cold Tyrode's solution (140 mM NaCl, 4 mM KCl, 2 mM CaCl2, 1.3 mM MgCl2, 10 mM D-glucose, 10 mM HEPES, pH adjusted to 7.4 with NaOH) with additional 2 mM Ca^+2 (Tyrode's) prior to dissociation. […]
# Current and voltage signals were detected and filtered at 2 kHz with an Axopatch 1D patch-clamp amplifier (Axon Instruments, Foster City, Calif.), digitally recorded with a DigiData 1200B laboratory interface (Axon Instruments), and PC compatible computer system and stored on magnetic disk for off-line analysis. […]
# [3] = system: CFA-injected rats; assay: Tactile allodynia (von Frey) in complete Freund's adjuvant (CFA) paw model of inflammatory pain; format: in vivo, rat; conditions: i.p.; ZD7288 10 mg/kg, ibuprofen 30 mg/kg, morphine 3 mg/kg, gabapentin 100 mg/kg
# [4] = system: rat mild thermal injury model; assay: Spontaneous pain behaviors in rat mild thermal injury (first-degree burn) model; format: in vivo; conditions: 30 and 60 min after i.p. administration
block of HCN3 hyperpolarization-induced inward currents ([1]; 3 mM CsCl),SMILES,reversibility of HCN3 current block [1],block of Ih in large DRG neurons [2],"block of HCN3 hyperpolarization-induced currents ([1]; 50 μM, n=3)",suppression of CFA-induced tactile allodynia [3],suppression of spontaneous pain behaviors [4]
completely blocked,"[Cl-].[Cs+] [Cs^+, CsCl]",rapidly reversible,efficacious block,–,–,–
–,CCN(c1ccccc1)c1cc(=NC)n(C)c(C)n1.Cl [ZD7288],did not reverse,efficacious block,98+/−2%,suppressed allodynia; also recorded: markedly suppressed,near complete suppression
